Assay results as given in patent publication US20100062939A1, “Herbicide/Safener Combination Comprising Dimethoxytriazinyl-Substituted Difluoromethanesulfonylanilides” (BAYER CROPSCIENCE AG, priority 2008, published 2010).

What was measured:
Assay type in all cases: in vivo
[1] = system: wheat (cultivar: Triso); test: Crop plant compatibility, post-emergence, wheat; settings: individual compound, no safener
Description: (§1) Seeds of crop plants were placed in sandy loam and then covered with soil. The pots were placed in a greenhouse and kept under good growth conditions for the crop plants. Two weeks after sowing, the test plants were treated at the 1-3 leaf stage. The active compounds of components (A) and (B), formulated in the form of wettable powders, were then sprayed as aqueous suspensions at various dosages onto the green parts of the plants, using an application rate of 300 l of water/ha (converted).
(§2) The visual scoring of the herbicidal effects in the combination with or without safener was carried out after the number of days stated in the tables (DAT=days after treatment). Scoring was carried out in percent in comparison to the untreated control plants (herbicidal activity in %). 0%=no herbicidal activity, 100%=complete herbicidal activity=complete kill.
(§3) The safener action was calculated by comparing the herbicidal activity in % of the herbicide combination without (individual compound) and with safener (combination). The difference of the herbicidal activity in % between the individual compound and the combination was then calculated in percent (safener action in %): 0%=no improvement by addition of safener, 100%=complete improvement by addition of safener=maximum crop plant compatibility.

[2] = system: barley (cultivar: Adonis); test: Crop plant compatibility, post-emergence, barley; settings: 17 DAT, individual compound, no safener
Description: as §1, §2, §3

[3] = system: corn (cultivar: Oldham); test: Crop plant compatibility, post-emergence, corn; settings: 17 DAT, individual compound, component A 20 g of ai/ha, no safener
Description: as §1, §2, §3

[4] = system: rice (cultivar: Rice Ballila); test: Crop plant compatibility, post-emergence, rice; settings: individual compound, no safener
Description: as §1, §2, §3

[5] = 17 DAT, component A 20 g of ai/ha

For `COc1nc(OC)nc(C(O)c2cccc(F)c2NS(=O)(=O)C(F)F)n1` (centres unmarked) [compound (A-3)], the “Herbicidal activity in %” value ([1]; 10 DAT, component A 6.7 g of ai/ha) was 5%, the “Herbicidal activity in %” value ([1]; 17 DAT, component A 2.2 g of ai/ha) was 8% and the “Herbicidal activity in %” value [1, 5] was 20%. The “Herbicidal activity in %” value ([2]; component A 6.7 g of ai/ha) was 10%, the “Herbicidal activity in %” value ([2]; component A 20 g of ai/ha) was 20% and the “Herbicidal activity in %” value [3] was 30%. The “Herbicidal activity in %” value ([4]; 10 DAT, component A 2.2 g of ai/ha) was 30% and the “Herbicidal activity in %” value [4, 5] was 50%.
